{
  "source": "patent US20220390432A1",
  "about": "“METHODS OF CHARACTERIZING AND UTILIZING AGENT-CONDENSATE INTERACTIONS” (Whitehead Institute for Biomedical Research, priority 2019, published 2022)",
  "key": {"MED1 droplets": {"molecular_target": "T1, MED1 droplets (Homo sapiens, UniProt Q15648)", "T1 construct": "MED1—amino acids 600-1581; 6xHis (N); made in house; host or cells: LOBSTR cells (E. coli)", "T1 sequence (Q15648 600-1581)": "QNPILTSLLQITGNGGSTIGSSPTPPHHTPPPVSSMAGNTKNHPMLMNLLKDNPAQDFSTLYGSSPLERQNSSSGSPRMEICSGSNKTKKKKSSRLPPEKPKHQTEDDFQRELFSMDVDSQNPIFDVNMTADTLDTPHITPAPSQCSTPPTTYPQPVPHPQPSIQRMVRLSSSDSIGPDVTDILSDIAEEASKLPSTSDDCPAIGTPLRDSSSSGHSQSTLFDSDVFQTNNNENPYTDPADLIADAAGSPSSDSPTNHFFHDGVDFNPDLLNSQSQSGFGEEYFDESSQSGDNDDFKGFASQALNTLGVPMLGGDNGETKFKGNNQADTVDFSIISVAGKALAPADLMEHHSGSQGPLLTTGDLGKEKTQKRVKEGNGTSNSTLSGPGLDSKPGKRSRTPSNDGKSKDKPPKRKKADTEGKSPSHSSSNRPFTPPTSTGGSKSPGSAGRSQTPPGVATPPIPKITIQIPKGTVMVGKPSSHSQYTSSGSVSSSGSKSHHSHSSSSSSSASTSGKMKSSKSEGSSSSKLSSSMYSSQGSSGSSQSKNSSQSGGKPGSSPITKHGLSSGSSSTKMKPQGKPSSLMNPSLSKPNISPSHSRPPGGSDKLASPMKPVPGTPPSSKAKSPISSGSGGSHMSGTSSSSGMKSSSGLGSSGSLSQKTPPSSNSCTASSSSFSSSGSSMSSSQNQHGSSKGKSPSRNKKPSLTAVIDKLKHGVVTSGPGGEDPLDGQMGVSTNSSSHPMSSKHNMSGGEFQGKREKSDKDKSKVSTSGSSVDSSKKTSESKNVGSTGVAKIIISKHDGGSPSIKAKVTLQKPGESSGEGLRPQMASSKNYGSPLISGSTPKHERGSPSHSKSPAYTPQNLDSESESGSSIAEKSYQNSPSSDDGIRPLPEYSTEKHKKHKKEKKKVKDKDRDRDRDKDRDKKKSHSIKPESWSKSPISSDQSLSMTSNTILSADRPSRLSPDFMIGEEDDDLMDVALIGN", "test": "In vitro droplet drug chase out experiment", "type": "binding", "settings": "100 μM FLTX1, 10-fold excess (1 mM) tamoxifen", "protocol": "For chase-out experiments 5 μM labeled cisplatin-TR was added to a MED1 droplets reaction (10 μM MED1, 50 mM Tris-HCl pH 7.5, 10% glycerol, 1 mM DTT, 10% PEG) in order to form MED1 droplets concentrated with Cisplatin-TR. Unlabeled transplatin or unlabeled cisplatin (vehicle, 10 μM, 100 μM, or 500 μM) were added to the droplet mixture and the amount of labeled cisplatin-TR remaining in the droplet is measured after chase out. 100 μM fluorescent FLTX1 was added to a MED1 droplets reaction (10 μM MED1, 50 mM Tris-HCl pH 7.5, 10% glycerol, 1 mM DTT, 10% PEG) in order to form MED1 droplets concentrated with FLTX1."}, "[1]": {"test_system": "MED1 condensates at MYC in MCF7 cells", "test": "Immunofluorescence with DNA FISH, MED1 condensates at the MYC oncogene", "type": "cell-based, human", "settings": "estrogen-starved MCF7 treated with estrogen or estrogen and tamoxifen", "protocol": "MCF7 cells were grown in estrogen-free DMEM for 3 days on Poly-L-ornithine coated coverslips in 24 well plates at an initial seeding density of 50,000 cells per well. Cells were then treated with vehicle, 10 uM estradiol, or 10 uM estradiol and 5 uM 4-hydroxytamoxifen for 45 minutes.\nCells on cover slips were then fixed in 4% paraformaldehyde. Immunofluorescence was performed as described above. After incubating the cells with the secondary antibodies, cells were washed three times in PBS for 5 min at RT, fixed with 4% PFA in PBS for 10 min and washed three times in PBS. Cells were incubated in 70% ethanol, 85% ethanol and then 100% ethanol for 1 minute at RT. Probe hybridization mixture was made mixing […], of FISH Hybridization Buffer (Agilent G9400A), 1 μl of FISH probes (SureFISH 8q24.21 MYC 294 kb G101211R-8) and 2 μL of water.\n5 μL of mixture was added on a slide and coverslip was placed on top (cell-side toward the hybridization mixture). Coverslip was sealed using rubber cement. Once rubber cement solidified, genomic DNA and probes were denatured at 78° C. for 5 minutes and slides were incubated at 16° C. in the dark O/N. The coverslip was removed from slide and incubated in pre-warmed Wash Buffer 1 (Agilent, G9401A) at 73° C. for 2 minutes and in Wash Buffer 2 (Agilent, G9402A) for 1 minute at RT. […]"}, "[2]": {"test_system": "ERα-MED1 condensate at the Lac array in U2OS cells", "test": "Lac array assay with tethered ER, MED1 immunofluorescence", "type": "cell-based, human", "settings": "for effect on ER/MED1 condensate at the Lac array: tethered ER, estrogen", "from_the_text": "When the transcriptional apparatus is recruited to that site a mediator condensate is detectable by immunofluorescence (Middle) U20S-Lac cells were transfected with a construct expressing the Lac DBD fused to the ER LBD and GFP+/− a construct overexpressing MED1. […] (Right) Quantification of MED1 enrichment relative at the Lac array, error bars represent SD.\nConstructs were assembled by NEB HIFI cloning in pSV2 mammalian expression vector containing an SV40 promoter driving expression of a mCherry-LacI fusion protein. The intrinsically disordered region of MED1, HP1α, or the activation domain of ESR1 was fused by the c-terminus to this recombinant protein, joined by the linker sequence […] (SEQ ID NO: 16). For experiments comparing FLTX1 enrichment at the array, U20S-Lac cells were plated onto chambered coverglass (1.5 Borosilicate Glass, Nunc Lab-Tek, 155409) and transfected with either MED1 IDR or HP1α constructs with lipofectamine 3000 (Thermofisher L3000015). After 24 hours, cells were treated with either 1 uM FLTX1 or vehicle (DMF). After 30 minutes, cells were imaged on the Zeiss LSM 880 confocal microscope with Airyscan detector with 63× objective at 37° C. For experiments with high MED1, cells grown in DMEM were plated on glass coverslips and transfected using lipofectamine 3000 (Thermofisher L3000015). A construct with a mammalian expression vector containing a PGK promoter driving the expression of MED1 fused to GFP was co-transfected in high MED1 conditions. […]\nFor analysis of Lac array data comparing MED1 or HP1α tethered, a region of interest was called using the signal in the Lac array (561 channel). The average fluorescent signal for FLTX1 (488 channel) was then measured in the region of interest and divided by the average fluorescence in the region of interest at the Lac array. […] For analysis of Lac array data for MED1 overexpression, enrichment was calculated by dividing the average fluorescent signal for MED1 immunofluorescence at the region of interest, defined by the ER tethered at the lac array, by MED1 immunofluorescence signal at a random nuclear region."}, "ERα point mutations": {"test_system": "ERα point mutations", "settings": "reference (52); cited from earlier work"}, "[3]": {"test_system": "patient-derived ERα mutants and MED1", "test": "In vitro droplet assay of patient-derived ERα mutants with MED1", "type": "biochemical, human", "settings": "100 μM estrogen, 100 μM tamoxifen"}},
  "note": "Entries after “also recorded” stand apart in the source; their conditions may differ.",
  "data": [
    {"smiles": "CC/C(=C(\\c1ccccc1)c1ccc(OCCN(C)C)cc1)c1ccccc1", "note": "[tamoxifen]", "values": [
      {"measurement": "chase out of FLTX1 from MED1 droplets", "setting": "MED1 droplets", "value": "diluted out"},
      {"measurement": "chase out of FLTX1 from MED1 droplets", "setting": "MED1 droplets; listed as Tamoxifen", "value": "able to chase-out FLTX1"},
      {"measurement": "MED1 condensates at the MYC oncogene", "setting": "[1]", "value": "reduces these; also recorded: not in the absence of estrogen or in the presence of estrogen and tamoxifen"},
      {"measurement": "effect on ERα-MED1 condensate at the Lac array when MED1 is overexpressed", "setting": "[2]; MED1 overexpressed", "value": "unable to dissociate the ERα-MED1 condensate"},
      {"measurement": "effect on ER/MED1 condensate at the Lac array", "setting": "[2]", "value": "eliminated by tamoxifen"},
      {"measurement": "effect on ER/MED1 condensate at the Lac array", "setting": "[2]; listed as Tamoxifen", "value": "reduced ER (green) and MED1 (red) containing condensates"},
      {"measurement": "reduction of affinity for tamoxifen by ERα point mutations", "setting": "ERα point mutations", "value": "approximately 10 fold"},
      {"measurement": "disruption of ERα mutant/MED1 condensates", "setting": "[3]", "value": "not disrupted"}
    ]}
  ]
}
